# What was measured:
# [1] = target: T1, farnesyl diphosphate synthase (Homo sapiens, UniProt P14324); conditions: statement from cited literature (ref. 28); cited from earlier work
# T1 sequence (P14324 1-419): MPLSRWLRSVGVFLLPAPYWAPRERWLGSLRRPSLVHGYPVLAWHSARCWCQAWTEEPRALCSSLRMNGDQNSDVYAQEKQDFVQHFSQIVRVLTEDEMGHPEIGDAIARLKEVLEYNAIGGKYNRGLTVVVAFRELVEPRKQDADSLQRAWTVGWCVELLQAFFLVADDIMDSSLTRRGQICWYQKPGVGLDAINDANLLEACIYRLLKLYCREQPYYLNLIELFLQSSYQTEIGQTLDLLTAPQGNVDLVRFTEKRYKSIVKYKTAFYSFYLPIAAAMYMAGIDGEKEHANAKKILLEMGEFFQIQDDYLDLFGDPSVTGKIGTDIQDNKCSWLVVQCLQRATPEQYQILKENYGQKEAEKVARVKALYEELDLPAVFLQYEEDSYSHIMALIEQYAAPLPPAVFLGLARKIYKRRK
# glioblastoma cells = test: activity in glioblastoma cell culture (3D 'tumor' cell growth, FIG. 6); type: cell-based; conditions: 3D 'tumor' cells, comparator alendronate
# Text: With entry to fully synthetic abietanes in hand, we explored the activity of taxodione (FL-1) and several synthetic analogs (FL-2 and FL-3) in glioblastoma cell culture (FIG. 6). […] Nevertheless, it is clear that a synthetic entry to bioactive molecules that inhibit glioblastoma cell growth has been established. This is a particularly important application because glioblastoma is an invasive brain cancer with a 5-year mean survival rate of only 5.5%. There are few effective treatments beyond surgery and ionizing radiation. Thus, new therapy modalities are urgently needed.
smiles,measurement,setting,value
"CC(C)C1=CC2=CC(=O)[C@H]3C(C)(C)CCC[C@]3(C)C2=C(O)C1=O (racemic) [FL-1, (±)-taxodione]",inhibitor of farnesyl diphosphate synthase,[1],inhibitor of farnesyl diphosphate synthase
same,arresting 3D 'tumor' cell growth / inhibiting glioblastoma cell growth,glioblastoma cells,superior to alendronate
